# ChEMBL document CHEMBL3885861, “Open TG-GATES”
# Species: Rattus norvegicus
# Assay: Open TG-GATES - Regimen: Daily Repeat
# Type: toxicity, organism-based, Sprague-Dawley
# Design: regimen Daily Repeat, gender Male, age 6 weeks
# Details: in vivo, po, route gavage; for APTT / Bas / Eos / Fbg / Hb / Ht / Lym / MCH / MCHC / Mono / Neu / Plat / RBC / Ret: tissue Blood; for KIDNEY_L / KIDNEY_R / KIDNEY_TOTAL: tissue Kidney; for LIVER: tissue Liver; for ALP / ALT / AST / BUN / CRE / Ca / Cl / DBIL / GLC / IP / K / LDH / Na / PL / RALB / TBIL / TC / TG / TP / gamma-GTP: tissue Plasma
# [1] = 10 mg/kg, 72 h, dose level Middle, time 3 day
# [2] = 10 mg/kg, […], dose level Middle, time 7 day
# [3] = 10 mg/kg, […], dose level Middle, time 14 day
# [4] = 10 mg/kg, […], dose level Middle, time 28 day
# [5] = 30 mg/kg, 72 h, dose level High, time 3 day
# [6] = 30 mg/kg, […], dose level High, time 7 day
# [7] = 30 mg/kg, […], dose level High, time 14 day
# [8] = 30 mg/kg, […], dose level High, time 28 day
structure (smiles),measurement,setting,value
O=C(CCCN1CCC(O)(c2ccc(Cl)cc2)CC1)c1ccc(F)cc1 [HALOPERIDOL],TERMINAL_BW,[1],211.5 g
same,APTT,[1],16 s
same,Bas,[1],0%
same,Eos,[1],0.6%
same,Fbg,[1],205.8 mg/dL
same,Hb,[1],14.8 g/dL
same,Ht,[1],44.6%
same,Lym,[1],81.4%
same,MCH,[1],21.3 pg
same,MCHC,[1],33.3%
same,Mono,[1],5.8%
same,Neu,[1],12.2%
same,Plat,[1],127.9 x10_4/uL
same,RBC,[1],695.4 x10_4/ul
same,Ret,[1],4.6%
same,KIDNEY_L,[1],0.9 g
same,KIDNEY_R,[1],0.9 g
same,KIDNEY_TOTAL,[1],1.8 g
same,LIVER,[1],10.3 g
same,ALP,[1],873.2 IU/L
same,ALT,[1],41 IU/L
same,AST,[1],64 IU/L
same,BUN,[1],22.2 mg/dL
same,CRE,[1],0.5 mg/dL
same,Ca,[1],11.3 mg/dL
same,Cl,[1],106.2 meq/L
same,DBIL,[1],0.002 mg/dL
same,GLC,[1],180 mg/dL
same,IP,[1],7.8 mg/dL
same,K,[1],4.7 meq/L
same,LDH,[1],95 IU/L
same,Na,[1],138.8 meq/L
same,PL,[1],177.8 mg/dL
same,RALB,[1],4.2 g/dL
same,TBIL,[1],0.2 mg/dL
same,TC,[1],78.2 mg/dL
same,TG,[1],156.2 mg/dL
same,TP,[1],6.2 g/dL
same,gamma-GTP,[1],1.2 IU/L
same,TERMINAL_BW,[2],234.1 g
same,TERMINAL_BW,[3],281.3 g
same,TERMINAL_BW,[4],341 g
same,APTT,[2],16.8 s
same,Bas,[2],0%
same,Eos,[2],0.4%
same,Fbg,[2],215.6 mg/dL
same,Hb,[2],15 g/dL
same,Ht,[2],44.6%
same,Lym,[2],75.4%
same,MCH,[2],21 pg
same,MCHC,[2],33.7%
same,Mono,[2],5%
same,Neu,[2],19.2%
same,Plat,[2],99.5 x10_4/uL
same,RBC,[2],717.6 x10_4/ul
same,Ret,[2],3.7%
same,APTT,[3],16.3 s
same,Bas,[3],0%
same,Eos,[3],0.2%
same,Fbg,[3],212.2 mg/dL
same,Hb,[3],14.7 g/dL
same,Ht,[3],43.9%
same,Lym,[3],75.6%
same,MCH,[3],20.3 pg
same,MCHC,[3],33.5%
same,Mono,[3],4.2%
same,Neu,[3],20%
same,Plat,[3],93.8 x10_4/uL
same,RBC,[3],722.2 x10_4/ul
same,Ret,[3],3.6%
same,APTT,[4],16 s
same,Bas,[4],0%
same,Eos,[4],0.4%
same,Fbg,[4],220.6 mg/dL
same,Hb,[4],15.3 g/dL
same,Ht,[4],45.8%
same,Lym,[4],78.8%
same,MCH,[4],19.5 pg
same,MCHC,[4],33.5%
same,Mono,[4],5.6%
same,Neu,[4],15.2%
same,Plat,[4],95.6 x10_4/uL
same,RBC,[4],788.6 x10_4/ul
same,Ret,[4],2.6%
same,KIDNEY_L,[2],1 g
same,KIDNEY_R,[2],1 g
same,KIDNEY_TOTAL,[2],1.9 g
same,KIDNEY_L,[3],1.1 g
same,KIDNEY_R,[3],1.1 g
same,KIDNEY_TOTAL,[3],2.2 g
same,KIDNEY_L,[4],1.2 g
same,KIDNEY_R,[4],1.2 g
same,KIDNEY_TOTAL,[4],2.4 g
same,LIVER,[2],10.8 g
same,LIVER,[3],12.3 g
same,LIVER,[4],13.4 g
same,ALP,[2],930.4 IU/L
same,ALT,[2],38.6 IU/L
same,AST,[2],66.8 IU/L
same,BUN,[2],20.2 mg/dL
same,CRE,[2],0.6 mg/dL
same,Ca,[2],11.4 mg/dL
same,Cl,[2],106.6 meq/L
same,DBIL,[2],0.004 mg/dL
same,GLC,[2],179.6 mg/dL
same,IP,[2],7.3 mg/dL
same,K,[2],4.6 meq/L
same,LDH,[2],84.8 IU/L
same,Na,[2],139 meq/L
same,PL,[2],174.4 mg/dL
same,RALB,[2],4 g/dL
same,TBIL,[2],0.3 mg/dL
same,TC,[2],84.8 mg/dL
same,TG,[2],123.8 mg/dL
same,TP,[2],6.2 g/dL
same,gamma-GTP,[2],1.8 IU/L
same,ALP,[3],773.8 IU/L
same,ALT,[3],29.2 IU/L
same,AST,[3],62.8 IU/L
same,BUN,[3],19.8 mg/dL
same,CRE,[3],0.4 mg/dL
same,Ca,[3],10.7 mg/dL
same,Cl,[3],107 meq/L
same,DBIL,[3],0.036 mg/dL
same,GLC,[3],184.2 mg/dL
same,IP,[3],7.8 mg/dL
same,K,[3],4.5 meq/L
same,LDH,[3],83.2 IU/L
same,Na,[3],138.4 meq/L
same,PL,[3],156 mg/dL
same,RALB,[3],4 g/dL
same,TBIL,[3],0.3 mg/dL
same,TC,[3],70.2 mg/dL
same,TG,[3],146 mg/dL
same,TP,[3],6.2 g/dL
same,gamma-GTP,[3],1.6 IU/L
same,ALP,[4],603.8 IU/L
same,ALT,[4],32.4 IU/L
same,AST,[4],66.8 IU/L
same,BUN,[4],20.4 mg/dL
same,CRE,[4],0.6 mg/dL
same,Ca,[4],10.7 mg/dL
same,Cl,[4],107.8 meq/L
same,DBIL,[4],0.062 mg/dL
same,GLC,[4],172.8 mg/dL
same,IP,[4],6.4 mg/dL
same,K,[4],4.7 meq/L
same,LDH,[4],72 IU/L
same,Na,[4],139.4 meq/L
same,PL,[4],141 mg/dL
same,RALB,[4],4.2 g/dL
same,TBIL,[4],0.3 mg/dL
same,TC,[4],63.6 mg/dL
same,TG,[4],133.4 mg/dL
same,TP,[4],6.7 g/dL
same,gamma-GTP,[4],1.6 IU/L
same,TERMINAL_BW,[5],179.6 g
same,APTT,[5],15.7 s
same,Bas,[5],0%
same,Eos,[5],1%
same,Fbg,[5],192.8 mg/dL
same,Hb,[5],15.9 g/dL
same,Ht,[5],47.3%
same,Lym,[5],83.4%
same,MCH,[5],21.2 pg
same,MCHC,[5],33.6%
same,Mono,[5],5%
same,Neu,[5],10.6%
same,Plat,[5],127.3 x10_4/uL
same,RBC,[5],751.8 x10_4/ul
same,Ret,[5],2.4%
same,KIDNEY_L,[5],0.8 g
same,KIDNEY_R,[5],0.9 g
same,KIDNEY_TOTAL,[5],1.7 g
same,LIVER,[5],7.7 g
same,ALP,[5],686.4 IU/L
same,ALT,[5],29.4 IU/L
same,AST,[5],62 IU/L
same,BUN,[5],28.2 mg/dL
same,CRE,[5],0.6 mg/dL
same,Ca,[5],11.2 mg/dL
same,Cl,[5],108.6 meq/L
same,DBIL,[5],0.002 mg/dL
same,GLC,[5],162.2 mg/dL
same,IP,[5],8.5 mg/dL
same,K,[5],4.7 meq/L
same,LDH,[5],176.8 IU/L
same,Na,[5],142.2 meq/L
same,PL,[5],159.6 mg/dL
same,RALB,[5],4.4 g/dL
same,TBIL,[5],0.2 mg/dL
same,TC,[5],88.2 mg/dL
same,TG,[5],80.8 mg/dL
same,TP,[5],6.2 g/dL
same,gamma-GTP,[5],1.2 IU/L
same,TERMINAL_BW,[6],213.8 g
same,TERMINAL_BW,[7],254.9 g
same,TERMINAL_BW,[8],329.7 g
same,APTT,[6],16.7 s
same,Bas,[6],0%
same,Eos,[6],0.4%
same,Fbg,[6],189.6 mg/dL
same,Hb,[6],15.4 g/dL
same,Ht,[6],46.2%
same,Lym,[6],82%
same,MCH,[6],21 pg
same,MCHC,[6],33.4%
same,Mono,[6],6.8%
same,Neu,[6],10.8%
same,Plat,[6],89.5 x10_4/uL
same,RBC,[6],735.6 x10_4/ul
same,Ret,[6],2.5%
same,APTT,[7],15.9 s
same,Bas,[7],0%
same,Eos,[7],0.4%
same,Fbg,[7],195.2 mg/dL
same,Hb,[7],15.4 g/dL
same,Ht,[7],46.4%
same,Lym,[7],84.6%
same,MCH,[7],20 pg
same,MCHC,[7],33.3%
same,Mono,[7],3.4%
same,Neu,[7],11.6%
same,Plat,[7],94.6 x10_4/uL
same,RBC,[7],773.4 x10_4/ul
same,Ret,[7],2.9%
same,APTT,[8],16.7 s
same,Bas,[8],0%
same,Eos,[8],0.6%
same,Fbg,[8],210.2 mg/dL
same,Hb,[8],15.2 g/dL
same,Ht,[8],45.1%
same,Lym,[8],84.4%
same,MCH,[8],19.4 pg
same,MCHC,[8],33.6%
same,Mono,[8],3.6%
same,Neu,[8],11.4%
same,Plat,[8],96.5 x10_4/uL
same,RBC,[8],782.8 x10_4/ul
same,Ret,[8],2.6%
same,KIDNEY_L,[6],0.9 g
same,KIDNEY_R,[6],0.9 g
same,KIDNEY_TOTAL,[6],1.8 g
same,KIDNEY_L,[7],1 g
same,KIDNEY_R,[7],1.1 g
same,KIDNEY_TOTAL,[7],2.1 g
same,KIDNEY_L,[8],1.2 g
same,KIDNEY_R,[8],1.2 g
same,KIDNEY_TOTAL,[8],2.4 g
same,LIVER,[6],10.3 g
same,LIVER,[7],10.8 g
same,LIVER,[8],12.8 g
same,ALP,[6],1009 IU/L
same,ALT,[6],38.8 IU/L
same,AST,[6],67.2 IU/L
same,BUN,[6],25.4 mg/dL
same,CRE,[6],0.5 mg/dL
same,Ca,[6],11.8 mg/dL
same,Cl,[6],106 meq/L
same,DBIL,[6],0.008 mg/dL
same,GLC,[6],164.2 mg/dL
same,IP,[6],7.6 mg/dL
same,K,[6],4.6 meq/L
same,LDH,[6],154.4 IU/L
same,Na,[6],140 meq/L
same,PL,[6],175.6 mg/dL
same,RALB,[6],4.1 g/dL
same,TBIL,[6],0.2 mg/dL
same,TC,[6],77.6 mg/dL
same,TG,[6],113.6 mg/dL
same,TP,[6],6.1 g/dL
same,gamma-GTP,[6],1.6 IU/L
same,ALP,[7],689.4 IU/L
same,ALT,[7],30.2 IU/L
same,AST,[7],65 IU/L
same,BUN,[7],24 mg/dL
same,CRE,[7],0.5 mg/dL
same,Ca,[7],11 mg/dL
same,Cl,[7],105.6 meq/L
same,DBIL,[7],0.012 mg/dL
same,GLC,[7],179.4 mg/dL
same,IP,[7],7.8 mg/dL
same,K,[7],4.7 meq/L
same,LDH,[7],178.6 IU/L
same,Na,[7],138.8 meq/L
same,PL,[7],162.4 mg/dL
same,RALB,[7],3.9 g/dL
same,TBIL,[7],0.3 mg/dL
same,TC,[7],76.2 mg/dL
same,TG,[7],107.4 mg/dL
same,TP,[7],6.1 g/dL
same,gamma-GTP,[7],1.2 IU/L
same,ALP,[8],528.8 IU/L
same,ALT,[8],31.6 IU/L
same,AST,[8],65.4 IU/L
same,BUN,[8],25.6 mg/dL
same,CRE,[8],0.5 mg/dL
same,Ca,[8],11.1 mg/dL
same,Cl,[8],107 meq/L
same,DBIL,[8],0.076 mg/dL
same,GLC,[8],177.8 mg/dL
same,IP,[8],7.6 mg/dL
same,K,[8],4.7 meq/L
same,LDH,[8],138.6 IU/L
same,Na,[8],140.2 meq/L
same,PL,[8],148.6 mg/dL
same,RALB,[8],3.9 g/dL
same,TBIL,[8],0.2 mg/dL
same,TC,[8],67 mg/dL
same,TG,[8],136.8 mg/dL
same,TP,[8],6.3 g/dL
same,gamma-GTP,[8],2.2 IU/L
